In US6274715A, “Tricyclic erythromycin derivatives” (priority 1997, dated 2001):
Values after ≈ are worked out from the molar mass of the structure shown.

Legend:
Type in all cases: cell-based
[1] = test system: STAPHYLOCOCCUS AUREUS NCTC10649M; assay: In vitro antibacterial activity, MIC, BHI agar dilution; details: S. aureus NCTC10649M, unit assumed
[2] = test system: STREPTOCOCCUS PYOGENES PIU 2548; assay: as above; details: S. pyogenes PIU 2548, unit assumed
[3] = test system: PSEUDOMONAS AERUGINOSA K799/61; assay: as above; details: P. aeruginosa K799/61, unit assumed
[4] = test system: STREPTOCOCCUS PYOGENES 930; assay: as above; details: S. pyogenes 930, unit assumed
[5] = test system: ESCHERICHIA COLI H560; assay: as above; details: E. coli H560, unit assumed
[6] = test system: PROVIDENCIA STUARTII CMX 640; details: P. stuartii CMX 640; BHI agar; unit assumed
[7] = test system: ESCHERICHIA COLI SS; assay: In vitro antibacterial activity, MIC, BHI agar dilution; details: E. coli SS, unit assumed
[8] = test system: ESCHERICHIA COLI JUHL; details: E. coli JUHL; BHI agar; unit assumed
[9] = test system: STR[…] 508; assay: In vitro antibacterial activity, MIC, BHI agar dilution; details: S. agalactiae CMX 508, unit assumed
Summary of the method: (§1)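 MIC was read visually as the lowest drug concentration showing no growth, a slight haze or sparsely isolated colonies relative to a compound-free BHI plate. Plates held serial aqueous dilutions in BHI agar, were spot-inoculated with 1:100 (or 1:10) culture dilutions and incubated 20 to 24 hours at 35-37° C.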

[10] = test system: EN[…] ATCC 8043; assay: as above; details: E. faecium ATCC 8043, unit assumed
Summary of the method: as §1

[11] = test system: M[…] ATCC 4698; assay: as above; details: M. luteus ATCC 4698, unit assumed
Summary of the method: as §1

[12] = test system: M[…] ATCC 9341; assay: as above; details: M. luteus ATCC 9341, unit assumed
Summary of the method: as §1

[13] = test system: KLEBSIELLA PNEUMONIAE ATCC 8045; assay: as above; details: K. pneumoniae ATCC 8045, unit assumed
[14] = test system: ESCHERICHIA COLI DC-2; assay: as above; details: E. coli DC-2, unit assumed
[15] = test system: PSEUDOMONAS AERUGINOSA DPHD-5263; assay: as above; details: P. aeruginosa DPHD-5263, unit assumed
[16] = test system: PSEUDOMONAS AERUGINOSA DPHD-2862; assay: as above; details: P. aeruginosa DPHD-2862, unit assumed
[17] = test system: STREPTOCOCCUS BOVIS A-5169; assay: as above; details: S. bovis A-5169, unit assumed
[18] = test system: CANDIDA ALBICANS CCH 442; assay: as above; details: C. albicans CCH 442, unit assumed
[19] = test system: STAPHYLOCOCCUS AUREUS CMX 642A; assay: as above; details: S. aureus CMX 642A, unit assumed
[20] = test system: MYCOBACTERIUM SMEGMATIS ATCC 114; assay: as above; details: M. smegmatis ATCC 114, unit assumed
[21] = test system: STAPHYLOCOCCUS EPIDERMIDIS 3519; details: S. epidermidis 3519; BHI agar; unit assumed
[22] = test system: PSEUDOMONAS CEPACIA 296I; assay: In vitro antibacterial activity, MIC, BHI agar dilution; details: P. cepacia 296I, unit assumed
[23] = test system: PSEUDOMONAS AERUGINOSA 5007; assay: as above; details: P. aeruginosa 5007, unit assumed
[24] = test system: PSEUDOMONAS AERUGINOSA K799/WT; assay: as above; details: P. aeruginosa K799/WT, unit assumed
[25] = test system: STAPHYLOCOCCUS AUREUS A5177; assay: as above; details: S. aureus A5177, unit assumed
[26] = test system: PSEUDOMONAS AERUGINOSA BMH10; assay: as above; details: P. aeruginosa BMH10, unit assumed
[27] = test system: STAPHYLOCOCCUS AUREUS CMX 553; assay: as above; details: S. aureus CMX 553, unit assumed
[28] = test system: STAPHYLOCOCCUS AUREUS A-5278; assay: as above; details: S. aureus A-5278, unit assumed
[29] = test system: STAPHYLOCOCCUS AUREUS 1775; assay: as above; details: S. aureus 1775, unit assumed
[30] = test system: STAPHYLOCOCCUS AUREUS ATCC 6538P; assay: as above; details: S. aureus ATCC 6538P, 35-37° C., 20 to 24 hours, unit assumed
[31] = test system: ENTEROBACTER AEROGENES ATCC 13048; assay: as above; details: E. aerogenes ATCC 13048, unit assumed
[32] = test system: STREPTOCOCCUS PYOGENES EES61; assay: as above; details: S. pyogenes EES61, unit assumed
[33] = test system: ESCHERICHIA COLI KNK 437; details: E. coli KNK 437; BHI agar; unit assumed

Row | Compound | MIC [1] | MIC [2] | MIC [3] | MIC [4] | MIC [5] | MIC [6] | MIC [7] | MIC [8] | MIC [9] | MIC [10] | MIC [11] | MIC [12] | MIC [13] | MIC [14] | MIC [15] | MIC [16] | MIC [17] | MIC [18] | MIC [19] | MIC [20] | further results
1 | CC[C@H]1OC(=O)[C@H](C)C(=O)[C@H](C)[C@@H](O[C@@H]2O[C@H](C)C[C@H](N(C)C)[C@H]2O)[C@](C)(OC)C[C@@H](C)C2=NC3CN(CCc4ccc(N)cc4)CC3N3C(=O)O[C@@]1(C)[C@H]3[C@H]2C (stereo partly drawn) [Example 121] | 0.78 µg/mL (≈ 0.977 µM) | 0.78 µg/mL (≈ 0.977 µM) | 0.39 µg/mL (≈ 0.489 µM) | > 100 µg/mL | 25 µg/mL (≈ 31.3 µM) | > 100 µg/mL | 0.2 µg/mL (≈ 0.251 µM) | 50 µg/mL (≈ 62.7 µM) | 0.02 µg/mL (≈ 0.0251 µM) | 0.05 µg/mL (≈ 0.0627 µM) | 0.2 µg/mL (≈ 0.251 µM) | 0.05 µg/mL (≈ 0.0627 µM) | 100 µg/mL (≈ 125 µM) | 50 µg/mL (≈ 62.7 µM) | > 100 µg/mL | > 100 µg/mL | 0.01 µg/mL (≈ 0.0125 µM) | > 100 µg/mL | 0.78 µg/mL (≈ 0.977 µM) | 6.2 µg/mL (≈ 7.77 µM) | MIC [21]: 0.78 µg/mL (≈ 0.977 µM); MIC [22]: 100 µg/mL (≈ 125 µM); MIC [23]: > 100 µg/mL; MIC [24]: > 100 µg/mL; MIC [25]: 0.78 µg/mL (≈ 0.977 µM); MIC [26]: 100 µg/mL (≈ 125 µM); MIC [27]: 0.78 µg/mL (≈ 0.977 µM); MIC [28]: > 100 µg/mL; MIC [29]: > 100 µg/mL; MIC [30]: 0.78 µg/mL (≈ 0.977 µM); MIC [31]: 100 µg/mL (≈ 125 µM); MIC [32]: 0.02 µg/mL (≈ 0.0251 µM); MIC [33]: 50 µg/mL (≈ 62.7 µM)
2 | CC[C@H]1OC(=O)[C@H](C)C(=O)[C@H](C)[C@@H](O[C@@H]2O[C@H](C)C[C@H](N(C)C)[C@H]2O)[C@](C)(OC)C[C@@H](C)C2=NC3CN(CCc4ccc(NC(C)=O)cc4)CC3N3C(=O)O[C@@]1(C)[C@H]3[C@H]2C (stereo partly drawn) [Example 122] | 0.78 µg/mL (≈ 0.928 µM) | 6.2 µg/mL (≈ 7.38 µM) | 0.78 µg/mL (≈ 0.928 µM) | 100 µg/mL (≈ 119 µM) | 50 µg/mL (≈ 59.5 µM) | > 100 µg/mL | 0.78 µg/mL (≈ 0.928 µM) | 100 µg/mL (≈ 119 µM) | 0.1 µg/mL (≈ 0.119 µM) | 0.78 µg/mL (≈ 0.928 µM) | 1.56 µg/mL (≈ 1.86 µM) | 0.05 µg/mL (≈ 0.0595 µM) | > 100 µg/mL | 100 µg/mL (≈ 119 µM) | > 100 µg/mL | > 100 µg/mL | 0.02 µg/mL (≈ 0.0238 µM) | > 100 µg/mL | 0.78 µg/mL (≈ 0.928 µM) | 25 µg/mL (≈ 29.8 µM) | MIC [21]: 0.78 µg/mL (≈ 0.928 µM); MIC [22]: > 100 µg/mL; MIC [23]: > 100 µg/mL; MIC [24]: > 100 µg/mL; MIC [25]: 0.39 µg/mL (≈ 0.464 µM); MIC [26]: > 100 µg/mL; MIC [27]: 0.78 µg/mL (≈ 0.928 µM); MIC [28]: > 100 µg/mL; MIC [29]: > 100 µg/mL; MIC [30]: 0.39 µg/mL (≈ 0.464 µM); MIC [31]: 100 µg/mL (≈ 119 µM); MIC [32]: 0.02 µg/mL (≈ 0.0238 µM); MIC [33]: 50 µg/mL (≈ 59.5 µM)
3 | CC[C@H]1OC(=O)[C@H](C)C(=O)[C@H](C)[C@@H](O[C@@H]2O[C@H](C)C[C@H](N(C)C)[C@H]2O)[C@](C)(OC)C[C@@H](C)C2=NC3CN(C=O)CC3N3C(=O)O[C@@]1(C)[C@H]3[C@H]2C (stereo partly drawn) [Example 124] | 0.78 µg/mL (≈ 1.1 µM) | 3.1 µg/mL (≈ 4.39 µM) | 0.78 µg/mL (≈ 1.1 µM) | > 100 µg/mL | 50 µg/mL (≈ 70.7 µM) | > 100 µg/mL | 0.78 µg/mL (≈ 1.1 µM) | 100 µg/mL (≈ 141 µM) | 0.1 µg/mL (≈ 0.141 µM) | 0.2 µg/mL (≈ 0.283 µM) | 0.39 µg/mL (≈ 0.552 µM) | 0.1 µg/mL (≈ 0.141 µM) | > 100 µg/mL | 100 µg/mL (≈ 141 µM) | > 100 µg/mL | > 100 µg/mL | 0.05 µg/mL (≈ 0.0707 µM) | > 100 µg/mL | 0.78 µg/mL (≈ 1.1 µM) | 25 µg/mL (≈ 35.4 µM) | MIC [21]: 3.1 µg/mL (≈ 4.39 µM); MIC [22]: > 100 µg/mL; MIC [23]: > 100 µg/mL; MIC [24]: 100 µg/mL (≈ 141 µM); MIC [25]: 1.56 µg/mL (≈ 2.21 µM); MIC [26]: > 100 µg/mL; MIC [27]: 0.78 µg/mL (≈ 1.1 µM); MIC [28]: > 100 µg/mL; MIC [29]: > 100 µg/mL; MIC [30]: 0.78 µg/mL (≈ 1.1 µM); MIC [31]: > 100 µg/mL; MIC [32]: 0.02 µg/mL (≈ 0.0283 µM); MIC [33]: 100 µg/mL (≈ 141 µM)
